Conditions: Liquid, Vibrating tube method

FC(C(F)(F)F)C(F)(F)F [1,1,1,2,3,3,3-heptafluoropropane]
Conditions	mass density [kg/m3]
333.15 K, 33156 kPa	1451.3
333.15 K, 33196 kPa	1451.6
333.15 K, 33224 kPa	1451.7
333.15 K, 33268 kPa	1451.7
333.15 K, 33317 kPa	1451.9
333.15 K, 33346 kPa	1452
333.15 K, 33391 kPa	1452.2
333.15 K, 33421 kPa	1452.4
333.15 K, 33465 kPa	1452.5
333.15 K, 33498 kPa	1452.4
333.15 K, 33532 kPa	1452.7
333.15 K, 33566 kPa	1452.8
333.15 K, 33615 kPa	1453
333.15 K, 33639 kPa	1453.3
333.15 K, 33683 kPa	1453.3
333.15 K, 33713 kPa	1453.3
333.15 K, 33753 kPa	1453.7
333.15 K, 34447 kPa	1456.1
333.15 K, 34493 kPa	1456.2
333.15 K, 34519 kPa	1456.4
333.15 K, 34541 kPa	1456.4
333.15 K, 34553 kPa	1456.4
333.15 K, 34564 kPa	1456.6
333.15 K, 34570 kPa	1456.7
333.16 K, 8979 kPa	1316.3
333.16 K, 9012 kPa	1316.5
333.16 K, 9767 kPa	1323.1
333.16 K, 9793 kPa	1323.2
333.16 K, 9821 kPa	1323.4
333.16 K, 9857 kPa	1323.7
333.16 K, 9885 kPa	1324
333.16 K, 9911 kPa	1324.3
333.16 K, 9936 kPa	1324.5
333.16 K, 9961 kPa	1324.7
333.16 K, 9986 kPa	1324.9
333.16 K, 10016 kPa	1325.2
333.16 K, 10042 kPa	1325.3
333.16 K, 10070 kPa	1325.4
333.16 K, 10094 kPa	1325.8
333.16 K, 10119 kPa	1326.1
333.16 K, 10148 kPa	1326.3
333.16 K, 10178 kPa	1326.6
333.16 K, 10203 kPa	1326.6
333.16 K, 10236 kPa	1326.9
333.16 K, 10265 kPa	1327.2
333.16 K, 10287 kPa	1327.4
333.16 K, 10312 kPa	1327.6
333.16 K, 10338 kPa	1327.9
333.16 K, 10367 kPa	1328.1
333.16 K, 10397 kPa	1328.3
333.16 K, 10430 kPa	1328.5
333.16 K, 10457 kPa	1328.7
333.16 K, 10483 kPa	1329
333.16 K, 10515 kPa	1329.4
333.16 K, 10537 kPa	1329.3
333.16 K, 10570 kPa	1329.8
333.16 K, 10596 kPa	1329.9
333.16 K, 10624 kPa	1330.1
333.16 K, 10654 kPa	1330.5
333.16 K, 10839 kPa	1331.8
333.16 K, 10866 kPa	1332.1
333.16 K, 10896 kPa	1332.3
333.16 K, 10918 kPa	1332.5
333.16 K, 10947 kPa	1332.7
333.16 K, 10979 kPa	1332.9
333.16 K, 11112 kPa	1334
333.16 K, 11141 kPa	1334.3
333.16 K, 11160 kPa	1334.5
333.16 K, 11186 kPa	1334.6
333.16 K, 11212 kPa	1334.9
333.16 K, 11245 kPa	1335.1
333.16 K, 11275 kPa	1335.4
333.16 K, 11298 kPa	1335.5
333.16 K, 11320 kPa	1335.7
333.16 K, 11353 kPa	1336
333.16 K, 11388 kPa	1336.3
333.16 K, 11415 kPa	1336.6
333.16 K, 11450 kPa	1336.7
333.16 K, 11481 kPa	1337
333.16 K, 11534 kPa	1337.4
333.16 K, 11792 kPa	1339.3
333.16 K, 11824 kPa	1339.6
333.16 K, 11847 kPa	1339.8
333.16 K, 11870 kPa	1339.9
333.16 K, 11897 kPa	1340.1
333.16 K, 11937 kPa	1340.4
333.16 K, 11965 kPa	1340.6
333.16 K, 11989 kPa	1340.8
333.16 K, 12024 kPa	1341.1
333.16 K, 12062 kPa	1341.3
333.16 K, 12090 kPa	1341.4
333.16 K, 12120 kPa	1341.8
333.16 K, 12147 kPa	1342
333.16 K, 12167 kPa	1342.2
333.16 K, 12202 kPa	1342.3
333.16 K, 12226 kPa	1342.6
333.16 K, 12261 kPa	1342.8
333.16 K, 12289 kPa	1343
333.16 K, 12321 kPa	1343.4
333.16 K, 12345 kPa	1343.5
333.16 K, 12385 kPa	1343.8
333.16 K, 12416 kPa	1344
333.16 K, 12443 kPa	1344.2
333.16 K, 12466 kPa	1344.3
333.16 K, 12886 kPa	1347.5
333.16 K, 12914 kPa	1347.5
333.16 K, 12942 kPa	1347.8
333.16 K, 12966 kPa	1347.9
333.16 K, 12994 kPa	1348.2
333.16 K, 13023 kPa	1348.2
333.16 K, 13053 kPa	1348.6
333.16 K, 13082 kPa	1348.9
333.16 K, 13115 kPa	1349.1
333.16 K, 13140 kPa	1349.1
333.16 K, 13164 kPa	1349.4
333.16 K, 13196 kPa	1349.7
333.16 K, 13220 kPa	1349.7
333.16 K, 13244 kPa	1349.9
333.16 K, 13272 kPa	1350.2
333.16 K, 13304 kPa	1350.5
333.16 K, 13324 kPa	1350.5
333.16 K, 13344 kPa	1350.6
333.16 K, 13368 kPa	1350.9
333.16 K, 13394 kPa	1351.1
333.16 K, 13432 kPa	1351.2
333.16 K, 13461 kPa	1351.4
333.16 K, 13494 kPa	1351.7
333.16 K, 13518 kPa	1351.9
333.16 K, 13633 kPa	1352.7
333.16 K, 13666 kPa	1352.9
333.16 K, 13690 kPa	1353
333.16 K, 13724 kPa	1353.1
333.16 K, 13921 kPa	1354.7
333.16 K, 13954 kPa	1354.9
333.16 K, 13991 kPa	1355.1
333.16 K, 14017 kPa	1355.3
333.16 K, 14050 kPa	1355.5
333.16 K, 14075 kPa	1355.8
333.16 K, 14106 kPa	1355.9
333.16 K, 14140 kPa	1356.2
333.16 K, 14828 kPa	1360.7
333.16 K, 14853 kPa	1360.9
333.16 K, 14892 kPa	1361.2
333.16 K, 14922 kPa	1361.4
333.16 K, 14953 kPa	1361.5
333.16 K, 14979 kPa	1361.7
333.16 K, 15001 kPa	1361.9
333.16 K, 15034 kPa	1362.1
333.16 K, 15054 kPa	1362.3
333.16 K, 15081 kPa	1362.5
333.16 K, 15117 kPa	1362.6
333.16 K, 15153 kPa	1362.8
333.16 K, 15179 kPa	1363
333.16 K, 15260 kPa	1363.6
333.16 K, 15320 kPa	1364
333.16 K, 15346 kPa	1364.2
333.16 K, 15370 kPa	1364.4
333.16 K, 15404 kPa	1364.4
333.16 K, 15436 kPa	1364.7
333.16 K, 15464 kPa	1364.9
333.16 K, 15500 kPa	1365.2
333.16 K, 15533 kPa	1365.2
333.16 K, 15561 kPa	1365.5
333.16 K, 15593 kPa	1365.8
333.16 K, 15630 kPa	1366
333.16 K, 15658 kPa	1366.2
333.16 K, 15689 kPa	1366.4
333.16 K, 15953 kPa	1368
333.16 K, 15985 kPa	1368.1
333.16 K, 16013 kPa	1368.3
333.16 K, 16049 kPa	1368.5
333.16 K, 16085 kPa	1368.9
333.16 K, 16105 kPa	1369.1
333.16 K, 16141 kPa	1369.2
333.16 K, 16169 kPa	1369.4
333.16 K, 16193 kPa	1369.6
333.16 K, 16223 kPa	1369.6
333.16 K, 16248 kPa	1370
333.16 K, 16281 kPa	1370.1
333.16 K, 16314 kPa	1370.3
333.16 K, 16339 kPa	1370.4
333.16 K, 16363 kPa	1370.5
333.16 K, 16388 kPa	1370.7
333.16 K, 16416 kPa	1370.9
333.16 K, 16540 kPa	1371.7
333.16 K, 16572 kPa	1371.9
333.16 K, 16600 kPa	1372
333.16 K, 16655 kPa	1372.4
333.16 K, 16788 kPa	1373.2
333.16 K, 16821 kPa	1373.3
333.16 K, 16850 kPa	1373.5
333.16 K, 16876 kPa	1373.7
333.16 K, 16909 kPa	1373.8
333.16 K, 16937 kPa	1374.2
333.16 K, 16964 kPa	1374.2
333.16 K, 16992 kPa	1374.4
333.16 K, 17013 kPa	1374.5
333.16 K, 17038 kPa	1374.7
333.16 K, 17063 kPa	1374.9
333.16 K, 17088 kPa	1374.9
333.16 K, 17109 kPa	1375.2
333.16 K, 17137 kPa	1375.3
333.16 K, 17162 kPa	1375.4
333.16 K, 17189 kPa	1375.7
333.16 K, 17215 kPa	1375.7

— the NIST ThermoML archive (doi:10.1021/je700260f)
